Reference: ChEMBL document CHEMBL2203177, “Tuning the activity of a short arg-trp antimicrobial Peptide by lipidation of a C- or N-terminal lysine side-chain” (ACS Med Chem Lett, 2012)
≈ marks a conversion by molar mass, not a printed value. Peptide text beside a SMILES is read from it. * marks the point of attachment. Lauroyl = CCCCCCCCCCCC(=O)*; Decanoyl = CCCCCCCCCC(=O)*; Butyryl = CCCC(=O)*

Key:
Bacillus subtilis [1] = assay: Bactericidal activity against Bacillus subtilis 168 (trpC2)2 assessed as survival rate at twice MIC concentration incubated for 15 mins measured after 18 hrs; format: functional, subsp. subtilis str. 168 (trpC2)2
[2] = Hemolytic activity against human RBC assessed as hemoglobin leakage at 250 ug/ml; format: ADME, cell-based, Erythrocyte; settings: human red blood cells, read-out: Activity
Acinetobacter baumannii = assay: Antibacterial activity against Acinetobacter baumannii DSM 30007 assessed as growth inhibition after 18 hrs; format: functional; settings: DSM 30007, 18 h
Staphylococcus aureus [3] = assay: Antibacterial activity against Staphylococcus aureus ATCC 43300 assessed as growth inhibition after 18 hrs; format: functional; settings: ATCC 43300, 18 h
Bacillus subtilis [4] = assay: Antibacterial activity against Bacillus subtilis 168 DSM 402 assessed as growth inhibition after 18 hrs; format: functional; settings: subsp. subtilis str. 168 DSM 402, 18 h
Escherichia coli = assay: Antibacterial activity against Escherichia coli DSM 30083 assessed as growth inhibition after 18 hrs; format: functional; settings: DSM 30083, 18 h
Staphylococcus aureus [5] = assay: Antibacterial activity against Staphylococcus aureus DSM 20231 assessed as growth inhibition after 18 hrs; format: functional; settings: DSM 20231, 18 h
Pseudomonas aeruginosa = assay: Antibacterial activity against Pseudomonas aeruginosa DSM 50071 assessed as growth inhibition after 18 hrs; format: functional; settings: DSM 50071, 18 h

SMILES | Survival (Bacillus subtilis [1]) [%] | hemolysis at 250 ug/ml [2] [%] | MIC (Acinetobacter baumannii) [µM] | MIC (Staphylococcus aureus [3]) [µM] | MIC (Bacillus subtilis [4]) [µM] | MIC (Escherichia coli) [µM] | MIC (Staphylococcus aureus [5]) [µM] | MIC (Pseudomonas aeruginosa) [µM]
CCCCCCCCCCCC(=O)NCCCC[C@H](N)C(=O)N[C@@H](CCCNC(=N)N)C(=O)N[C@@H](Cc1c[nH]c2ccccc12)C(=O)N[C@@H](CCCNC(=N)N)C(=O)N[C@@H](Cc1c[nH]c2ccccc12)C(=O)N[C@@H](CCCNC(=N)N)C(=O)N[C@@H](Cc1c[nH]c2ccccc12)C(N)=O (H-K(Lauroyl)RWRWRW-NH2) | 0.011 | > 50 | 18 (≈ 24.4 µg/mL) | 2 (≈ 2.71 µg/mL) | 9 (≈ 12.2 µg/mL) | 9 (≈ 12.2 µg/mL) | 4 (≈ 5.42 µg/mL) | > 100
N=C(N)NCCC[C@H](NC(=O)[C@H](Cc1c[nH]c2ccccc12)NC(=O)[C@H](CCCNC(=N)N)NC(=O)[C@H](Cc1c[nH]c2ccccc12)NC(=O)[C@H](CCCNC(=N)N)NC(=O)[C@@H](N)CCCCN)C(=O)N[C@@H](Cc1c[nH]c2ccccc12)C(N)=O (H-KRWRWRW-NH2) | 7 | < 10 | > 100 | 9 (≈ 10.6 µg/mL) | 2 (≈ 2.34 µg/mL) | 18 (≈ 21.1 µg/mL) | 37 (≈ 43.4 µg/mL) | > 100
CCCCCCCCCC(=O)NCCCC[C@H](N)C(=O)N[C@@H](CCCNC(=N)N)C(=O)N[C@@H](Cc1c[nH]c2ccccc12)C(=O)N[C@@H](CCCNC(=N)N)C(=O)N[C@@H](Cc1c[nH]c2ccccc12)C(=O)N[C@@H](CCCNC(=N)N)C(=O)N[C@@H](Cc1c[nH]c2ccccc12)C(N)=O (H-K(Decanoyl)RWRWRW-NH2) | 0.016 | > 50 | 9 (≈ 11.9 µg/mL) | 1 (≈ 1.33 µg/mL) | 2 (≈ 2.65 µg/mL) | 5 (≈ 6.63 µg/mL) | 2 (≈ 2.65 µg/mL) | 9 (≈ 11.9 µg/mL)
CC(=O)NCCCC[C@H](N)C(=O)N[C@@H](CCCNC(=N)N)C(=O)N[C@@H](Cc1c[nH]c2ccccc12)C(=O)N[C@@H](CCCNC(=N)N)C(=O)N[C@@H](Cc1c[nH]c2ccccc12)C(=O)N[C@@H](CCCNC(=N)N)C(=O)N[C@@H](Cc1c[nH]c2ccccc12)C(N)=O (H-K(Ac)RWRWRW-NH2) | – | < 10 | > 100 | > 100 | 10 (≈ 12.1 µg/mL) | > 100 | > 100 | > 100
CCCC(=O)NCCCC[C@H](NC(=O)[C@H](Cc1c[nH]c2ccccc12)NC(=O)[C@H](CCCNC(=N)N)NC(=O)[C@H](Cc1c[nH]c2ccccc12)NC(=O)[C@H](CCCNC(=N)N)NC(=O)[C@H](Cc1c[nH]c2ccccc12)NC(=O)[C@@H](N)CCCNC(=N)N)C(N)=O (H-RWRWRWK(Butyryl)-NH2) | – | < 10 | > 100 | 38 (≈ 47.2 µg/mL) | 5 (≈ 6.21 µg/mL) | 38 (≈ 47.2 µg/mL) | > 100 | > 100
CC(=O)NCCCC[C@H](NC(=O)[C@H](Cc1c[nH]c2ccccc12)NC(=O)[C@H](CCCNC(=N)N)NC(=O)[C@H](Cc1c[nH]c2ccccc12)NC(=O)[C@H](CCCNC(=N)N)NC(=O)[C@H](Cc1c[nH]c2ccccc12)NC(=O)[C@@H](N)CCCNC(=N)N)C(N)=O (H-RWRWRWK(Ac)-NH2) | – | < 10 | > 100 | > 100 | 10 (≈ 12.1 µg/mL) | > 100 | > 100 | > 100
N=C(N)NCCC[C@H](NC(=O)[C@H](Cc1c[nH]c2ccccc12)NC(=O)[C@H](CCCNC(=N)N)NC(=O)[C@H](Cc1c[nH]c2ccccc12)NC(=O)[C@@H](N)CCCNC(=N)N)C(=O)N[C@@H](Cc1c[nH]c2ccccc12)C(=O)N[C@@H](CCCCN)C(N)=O (H-RWRWRWK-NH2) | – | < 10 | > 100 | 18 (≈ 21.1 µg/mL) | 5 (≈ 5.86 µg/mL) | 18 (≈ 21.1 µg/mL) | 37 (≈ 43.4 µg/mL) | > 100
CCCC(=O)NCCCC[C@H](N)C(=O)N[C@@H](CCCNC(=N)N)C(=O)N[C@@H](Cc1c[nH]c2ccccc12)C(=O)N[C@@H](CCCNC(=N)N)C(=O)N[C@@H](Cc1c[nH]c2ccccc12)C(=O)N[C@@H](CCCNC(=N)N)C(=O)N[C@@H](Cc1c[nH]c2ccccc12)C(N)=O (H-K(Butyryl)RWRWRW-NH2) | – | < 10 | > 100 | 19 (≈ 23.6 µg/mL) | 2 (≈ 2.49 µg/mL) | 38 (≈ 47.2 µg/mL) | 38 (≈ 47.2 µg/mL) | > 100
